Laboratory results: US20250313849A1, “OPTOGENETIC INDUCTION OF MEMBRANELESS ORGANELLES” (UNIVERSITY OF PITTSBURGH-OF THE COMMONWEALTH SYSTEM OF …, priority 2017, published 2025)
Entries after “also recorded” stand apart in the source; their conditions may differ.

Columns and labels:
Type in all cases: cell-based
[1] = test system: endogenous stress granule formation; experiment: NaAsO2 induced endogenous stress granule formation in cells expressing G3BP1-NcVVDY50W, inhibitor pre-treatment; conditions: NaAsO2 0.5 mM, 30 min; GSK2606414 added 1 hour before, cycloheximide 1 and a half hours before
Description: (§1) FIGS. 22A-22B. […] When endogenous stress granule formation is induced with NaAsO2 (0.5 mM, 30 min treatment), the G3BP1-NcVVDY50W forms stress granules that stain positive for key markers TIAR and eIF4G. When GSK2606414, a PERK kinase inhibitor, is added 1 hour before NaAsO2 treatment, endogenous stress granule formation is attenuated (FIG. 22A). When GSK2606414 is added 1 hour before blue light stimulation, there is no change in stress granule formation (FIG. 22B).
(§2) FIGS. 23A-23B. […] When endogenous stress granule formation is induced with NaAsO2 (0.5 mM, 30 min treatment), the G3BP1-NcVVDY50W forms stress granules that stain positive for the key marker eIF4G. When cycloheximide, a translational inhibitor, is added 1 and a half hours before NaAsO2 treatment, endogenous stress granule formation is attenuated (FIG. 23A).

[2] = test system: optogenetically induced stress granule formation; experiment: Blue light (optogenetically) induced stress granule formation, inhibitor pre-treatment; conditions: blue light stimulation; GSK2606414 added 1 hour before, cycloheximide 1 and a half hours before
Description: as §1, §2
These light induced stress granules colocalize with key stress granule components, including Ataxin-2, TIAR, G3BP, eIF4G, eIF3H, RPS3, RPS6, TDP-43, FUS mRNA, and PABPC1 (FIGS. 2-9, 12, 13, 18, 20, 22, 23, 24, 25). Furthermore, the colocalization with mRNA (FIGS. 12 and 13) indicates the light induced stress granules are likely inhibiting mRNA translation. Note that the light induced stress granules appear identical to naturally occurring stress granules induced by heat shock treatment for 30 minutes at 42° C. […]

stress granules = experiment: Cellular occurrence and structural characteristics of stress granules; conditions: NaAsO2 0.5 mM, 30 min; cells expressing G3BP1-NcVVDY50W; Ataxin-2 positive
Description: FIGS. 11A-11D. […] Under normal conditions, G3BP1-NcVVDY50W remains diffuse in the cytoplasm. When endogenous stress granule formation is induced with NaAsO2 (0.5 mM, 30 min treatment), the G3BP1-NcVVDY50W forms stress granules that stain positive for the key marker Ataxin-2, and occur in the cell 11 times on average (FIG. 11A). They also have a defined shape that gives them a defined area (FIG. 11B), diameter (FIG. 11C) and circularity (FIG. 11D).

HEK293 cells [3] = experiment: Blue light induced stress granules: staining for stress granule markers and mRNA; conditions: blue light stimulation
Source text: FIGS. 2A-2B. Blue light induced stress granules using a NcVVDY50W-G3BP1 protein arrangement. […] A DNA arrangement that generates the NcVVDY50W-G3BP1 was developed and expressed in HEK293 cells. Under normal conditions, the NcVVDY50W-G3BP1 remains diffuse in the cytoplasm. When endogenous stress granule formation is induced with heat shock, the NcVVDY50W-G3BP1 forms stress granules that stain positive for key markers including Ataxin-2 and TIAR.
FIG. 5. […] Under normal conditions, G3BP1-NcVVDY50W remains diffuse in the cytoplasm. When endogenous stress granule formation is induced with NaAsO2 (0.5 mM, 30 min treatment), the G3BP1-NcVVDY50W forms stress granules that stain positive for key markers TDP-43 and eIF4G. […] As an example of this technology, DNA arrangements were developed that generated G3BP1-NcVVDY50W, and expressed in HEK293 cells. Under normal conditions, the G3BP1-NcVVDY50W remains diffuse in the cytoplasm. When endogenous stress granule formation is induced with sodium arsenite, the G3BP1-NcVVDY50W forms stress granules that probe positive for key markers, including TDP-43 and eIF4G. […] Inserts are 3D images of stress granules indicated by arrows.
While stress granule dynamics are shown to be altered in these diseases, the true contributions of stress granules to disease pathobiology is unknown since the only current method to form these organelles is to introduce an extracellular stressor (e.g. heat stress at 43° C., exposure to sodium arsenite) which is toxic to cells and ultimately kills the cells being studied. The longest studies of stress granules to date are only on the order of a few hours and so, the importance of these organelles in the initiation of neurodegeneration or cancer cannot be assessed. Therefore, a method to control stress granule formation was developed using light, without the need for any extracellular stressors. To achieve this, the DNA encoding specific photoreceptor protein domains that self-bind with blue light exposure were linked to the DNA of a key protein required for the formation of stress granules, G3BP1 or TIA1. These arrangements were then expressed in HEK293 cells and were tested for their ability to form functional stress granules with various blue light treatment paradigms. It was shown that the LOV photoreceptor domain, from the Vivid protein of N. crassa, which is known to dimerize with blue light exposure, when fused to G3BP1 and exposed to 15-1080 min of 465 nm light at 0.1-1.0 mW/cm2 initiates the formation of a core stress granule structure consisting of the photoreceptors fused to G3BP1 that recruits additional G3BP1 and accessory proteins that comprise stress granules and allow for their maturation. This likely involved the liquid-liquid phase separation (LLPS) and dimerization and oligomerization of G3BP1 (concept represented in FIG. 1).

HEK293 cells [4] = experiment: Longitudinal live imaging of light induced stress granule dynamics; conditions: for dynamics / liquid-like behaviour of light induced stress granules: blue light on/off or chronic
Description: FIG. 15. […] NcVVDY50W-G3BP1 was expressed in HEK293 cells. […] NcVVDY50W-G3BP1 expressing HEK293 cells were longitudinally imaged every 30 seconds and exposed to blue light in between each image for 30 minutes. The light was then removed and cells were imaged every 30 seconds without light in between each image to study the rate of formation and dissociation of the light induced stress granules.
FIGS. 17A-17B. […] FIG. 17A) NcVVDY50W-G3BP1 was expressed in HEK293 cells. Stress granule formation can be temporally controlled with light stimulation at different voltages. FIGS. 17B) NcVVDY50W-G3BP1 expressing HEK293 cells were longitudinally imaged every 30 seconds and exposed to different voltages (1.0V, or 5.0V, or 10.0V) of blue light in between each image for 30 minutes, over a time-course of 6 hours. The light was then removed and cells were imaged every 30 seconds without light in between each image to study the rate of formation of the light induced stress granules.
FIGS. 18A-18E. […] NcVVDY50W-G3BP1 was expressed in HEK293 cells. […] Light paradigms were developed to chronically form stress granules with light for up to 18 hours. The light induced stress granules are positive for both key markers such as PABPC1 and sequester mRNA throughout the time course, indicating they are functional. […] No previous study has been able to induce stress granule formation for more than 2-3 hours as the cells die from the treatment to induce stress granules. Thus, these are the first studies to create chronic stress granules for over 2-3 hours.
(§3) FIGS. 24A-24E. Replacing the G3BP1 NTF2 domain, which is required for G3BP1 self-oligomerization (optoSG), with oligomerizing photoreceptors, is sufficient to initiate the formation of optogenetic stress granules. FIG. 24A) Schematics of an additional approach to seed optoStress Granules (optoSGs) employing truncated G3BP1 protein and replacing the NTF2 oligomerizing domain with a photoreceptor with the capacity to oligomerize (in this instance Cry2-PHR, but also works with chronic stimulation of dimerizing photoreceptor). FIG. 24B) HEK cells expressing Cry2 PHR-[…]NTF-G3BP1 were exposed to blue light LED stimulation for 30 minutes to induce the formation of optoSGs.
FIGS. 25A-25C. OptoStress Granules (optoSGs) (Cry2-delta NTF-G3BP1) display liquid-like properties of membraneless organelles and colocalize with translation initiation factors and mRNA.

protein synthesis = experiment: De novo protein synthesis, HPG incorporation with Click-iT detection; conditions: blue light stimulation; Click-iT detection
Description: FIGS. 14A-14B. […] The major function of endogenous stress granules is to bind mRNAs and halt protein synthesis until the cellular stress is removed. To test this, cells expressing G3BP1-NcVVDY50W were either exposed to blue light stimulation or not for 30 minutes and protein translation was assessed. Prior to the translation assay, cells were treated with cyclohexamide for one hour to inhibit protein synthesis and then the cyclohexamide was removed and cells were provided L-Homopropargylglycine (HPG) for one hour. HPG acts as a methionine amino acid analog and is incorporated into newly synthesized proteins. Click-iT™ chemistry was then performed to detect HPG and cells were imaged. Green signal indicates newly synthesized proteins during the time at which HPG is present in the media.
as §3

Molecule	endogenous stress granule formation [1]	optogenetically induced stress granule formation [2]	colocalization of blue light induced stress granules with stress granule markers (HEK293 cells [3])	dynamics / liquid-like behaviour of light induced stress granules (HEK293 cells [4]; HEK293 cells)	other results
Cn1cc(-c2ccc3c(c2)CCN3C(=O)Cc2cccc(C(F)(F)F)c2)c2c(N)ncnc21 [GSK2606414]	attenuated	no change	–	–	–
O=[As]O [NaAsO2, sodium arsenite]	–	–	–	–	occurrence of stress granules in the cell, on average (stress granules): 11
C[C@@H]1C[C@@H]([C@H](O)CC2CC(=O)NC(=O)C2)C(=O)[C@@H](C)C1 [cycloheximide]	attenuated	inhibited; also recorded: fail to form	–	–	–
NcVVDY50W-G3BP1: NcVivid Y50W with G3BP1 Full Length Protein, SEQ ID NO: 9	–	–	stained positive for Ataxin-2 and TIAR; also recorded: colocalize with the key stress granule marker eIF3H	repeatedly formed; also recorded: decrease in number and increase in size	mRNA sequestration by blue light induced stress granules (HEK293 cells [3]): sequester cytoplasmic mRNA; duration of chronically formed stress granules with light (HEK293 cells [4]; HEK293 cells, chronic light, no cell stressors): up to 18 hours
Cry2 PHR-[…]NTF-G3BP1: Cry2PHR with G3BP1 NTF2 Domain Deletion Mutation, SEQ ID NO: 94 (protein) MKMDKKTIVWFRRDLRIEDNPALAAAAHEGSVFPVFIWCPEEEGQFYPGRASRWWMKQSLAHLSQSLKALGSDLTLIKTHNTISAILDCIRVTGATKVVFNHLYDPVSLVRDHTVKEKLVERGISVQSYNGDLLYEPWEIYCEKGKPFTSFNSYWKKCLDMSIESVMLPPPWRLMPITAAAEAIWACSIEELGLENEAEKPSNALLTRAWSPGWSNADKLLNEFIEKQLIDYAKNSKKVVGNSTSLLSPYLHFGEISVRHVFQCARMKQIIWARDKNSEGEESADLFLRGIGLREYSRYICFNFPFTHEQSLLSHLRFFPWDADVDKFKAWRQGRTGYPLVDAGMRELWATGWMHNRIRVIVSSFAVKFLLLPWKWGMKYFWDTLLDADLECDILGWQYISGSIPDGHELDRLDNPALQGAKYDPEGEYIRQWLPELARLPTEWIHHPWDAPLTVLKASGVELGTNYAKPIVDIDTARELLAKAISRTREAQIMIGAAMGFVTEPQEESEEEVEEPEERQQTPEVVPDDSGTFYDQAVVSNDMEEHLEEPVAEPEPDPEPEPEQEPVSEIQEEKPEPVLEETAPEDAQKSSSPAPADIAQTVQEDLRTFSWASVTSKNLPPSGAVPVTGIPPHVVKVPASQPRPESKPESQIPPQRPQRDQRVREQRINIPPQRGPRPIREAGEQGDIEPRRMVRHPDSHQLFIGNLPHEVDKSELKDFFQSYGNVVELRINSGGKLPNFGFVVFDDSEPVQKVLSNRPIMFRGEVRLNVEEKKTRAAREGDRRDNRLRGPGGPRGGLGGGMRGPPRGGMVQKPGFGVGRGLAPRQKLIPMARRAWLEHGHSCFLCEIVIRSQFHTTYEPEA	–	–	colocalize with endogenous stress granule markers including PABPC1 and the 40S ribosomal component RPS3; also recorded: colocalize with mature stress granule markers Ataxin2 and eIF4G translational factors	exhibit the liquid-like droplet properties of endogenously formed stress granules	protein synthesis (HPG signal) with light-induced stress granules (protein synthesis): inhibit cellular protein synthesis to a similar degree as sodium arsenite induced stress granules; time to optoSG formation (HEK293 cells [4]; HEKs, blue light LED stimulation): 15 min
